Source: patent publication EP2812315B1, “PYRROLIC DERIVATIVES, PROCESSES FOR PREPARING THE SAME AND THEIR USES AS A DRUG” (Universite Joseph Fourier, priority 2012, dated 2013)
≈ marks a conversion by molar mass, not a printed value.

Key:
Type in all cases: cell-based
[1] = system: Staphylococcus aureus ATCC 29213; experiment: MIC determination, microdilution method (CLSI M07-A8); conditions: ATCC29213; Staphylococcus aureus ATCC 29213; 5 x 10^5 CFU/mL; 18 hours incubation; read-out: MIC
Experimental: (§1) The microdilution method recommended by the Clinical and Laboratory Standard Institute [M07-A8, Vol.29, N°2] was used. The activity of pyrrolic compounds was tested against 29 bacterial strains belonging to 17 different species and 12 different genera (Staphylococcus, Streptococcus, Enterococcus, […], Bacillus, Haetttophilus, Escherichia, Klebsiella, Enterobacter, Serratia, Pseudomonas, and Acinetobacter). Bacterial inocula were prepared in Mueller Hinton broth (MH2, bioMérieux, Marcy L'Etoile, France), supplemented with 10% sheep blood for fastidious species (i.e., Streptococcus pneumoniae and Haemophilus influenzae). They were dispensed in 96 well microtiter plates (5 x 10^5 CFU/mL of final inoculum). Pyrrolic compounds were added to the wells as to obtain two-fold serial concentrations (0.25-64 mg/L). Plates were incubated at 37°C, in 5% CO2 enriched atmosphere for fastidious species only. MICs were read after 18 hours incubation of cultures, and corresponded to the minimum pyrrolic compound concentration that allowed complete visual growth inhibition of bacteria. Drug-free cultures served as growth controls. Cultures receiving gentamicine, ciprofloxacine or cefotaxime served as positive controls.

[2] = system: Staphylococcus epidermidis ATCC 12228; experiment: as above; conditions: ATCC12228; Staphylococcus epidermidis ATCC 12228; 5 x 10^5 CFU/mL; 18 hours incubation; read-out: MIC
Experimental: as §1

[3] = system: Staphylococcus aureus ATCC 25923; experiment: as above; conditions: ATCC25923; Staphylococcus aureus ATCC 25923; 5 x 10^5 CFU/mL; 18 hours incubation; read-out: MIC
Experimental: as §1

[4] = system: Pseudomonas aeruginosa CIP 5933; experiment: as above; conditions: CIP5933; Pseudomonas aeruginosa CIP 5933; 18 hours incubation; read-out: MIC
Experimental: as §1

[5] = system: Serratia marcescens CIP 103551; experiment: as above; conditions: CIP103551; Serratia marcescens CIP 103551; 18 hours incubation; read-out: MIC
Experimental: as §1

[6] = system: Staphylococcus sciuri (ATCC 29061); experiment: Other MIC determination, microdilution method (CLSI M07-A9) with modifications; conditions: Mammaliicoccus sciuri, ATCC29061, 10^6 CFU/ml, 18h at 37 °C
Experimental: (§2) The microdilution method recommended by the Clinical and Laboratory Standard Institute [M07-A9, Vol.32, N°2] was used with the following modifications.
(§3) Bacterial inocula were prepared in Mueller Hinton broth (MH2, BioMérieux, Marcy L'Etoile, France). They were dispensed in 96 well microtiter plates (10^6 CFU/ml of final inoculum, 192 µL per well).
(§4) To avoid cross-contaminations in microtiter plates, one row was left blank between each strain tested. Microplates were incubated for 18h at 37 °C in ambient air. Then MICs were read visually and, in case of visual reading difficulties, confirmed using a spectrophotometer at a wavelength of 630 nm (BioTek® EL808 Absorbance Microplate Reader). MICs corresponded to the minimum pyrrolic compound concentrations that allowed complete visual growth inhibition of bacteria. Drug-free cultures served as growth controls.
(§5) We used four Staphylococcus aureus strains. Two reference strains were provided by the French reference center for Staphylococcus spp. (Lyon, France), including one methicillin-susceptible (MSSA 476) and one methicillin-resistant (MRSA 252) S. aureus strains. The two remaining S. aureus strains were purchased from the CRBIP (Centre de Ressources Biologiques de l'Institut Pasteur): a vancomycin-intermediate strain (ATCC 106414) and a S. aureus strain (SA-1199B) resistant to fluoroquinolones due to overexpression of the NorA multidrug efflux pump. Coagulase-negative Staphylococcus strains included three reference strains purchased from CRBIP: a methicillin-susceptible S. epidermidis strain (ATCC 12228), a methicillin-resistant S. epidermidis strain (ATCC 49461), and a methicillin-susceptible S. sciuri strain (ATCC 29061). We also used 37 clinical strains belonging to the following coagulase-negative Staphylococcus species: S. arlettae (two strains), S. capitis (nine strains), S. epidermidis (one strain), S. haemolyticus (six strains), S. hominis (eight strains), S. lugdunensis (one strain), S. massiliensis (one strain), S. pettenkoferi (two strains), S. saprophyticus (two strains), S. simulans (one strain), and S. warneri (four strains) . Identification of the clinical strains was first obtained using VITEK® 2 System (Biomérieux) and confirmed by amplification and sequencing of the tuf gene (Reference: Bergeron, M., O. Dauwalder, M. Gouy, A.-M. Freydiere, M. Bes, H. Meugnier, Y. Benito, J. Etienne, G. Lina, F. Vandenesch, and S. Boisset. Species identification of staphylococci by amplification and sequencing of the tuf gene compared to the gap gene and by matrix-assisted laser desorption ionization time-of-flight mass spectrometry, Eur. J. Clin. Microbial. Infect. Dis. 2011, 30, 343-354).
(§6) The activity of pyrrolic compounds 3c, 3e-3j and 3n was first tested against 12 Staphylococcus sp. strains, including 7 reference strains and five clinical strains. The MICs of these compounds against Staphylococcus aureus ATCC 106414 (VISA) and Staphylococcus epidermidis ATCC 12228 are in accordance with those described in Tables I and II.

[7] = system: Staphylococcus aureus (MSSA476); experiment: as above; conditions: 10^6 CFU/ml, 18h at 37 °C
Experimental: as §2, §3, §4, §5, §6

[8] = system: Staphylococcus pettenkoferi (CHUG-Spet1); experiment: as above; conditions: 10^6 CFU/ml, 18h at 37 °C
Experimental: as §2, §3, §4, §5, §6

[9] = system: Staphylococcus hominis(CHUG-Shom1); experiment: as above; conditions: 10^6 CFU/ml, 18h at 37 °C
Experimental: as §2, §3, §4, §5, §6

[10] = system: Staphylococcus epidermidis (ATCC 12228); experiment: as above; conditions: ATCC12228, 10^6 CFU/ml, 18h at 37 °C
Experimental: as §2, §3, §4, §5, §6

[11] = system: Staphylococcus capitis (CHUG-Scapi1); experiment: as above; conditions: 10^6 CFU/ml, 18h at 37 °C
Experimental: as §2, §3, §4, §5, §6

[12] = system: Staphylococcus aureus (MRSA 252); experiment: as above; conditions: 10^6 CFU/ml, 18h at 37 °C
Experimental: as §2, §3, §4, §5, §6

[13] = system: Staphylococcus haemolyticus (CHUG-Shae1); experiment: as above; conditions: 10^6 CFU/ml, 18h at 37 °C
Experimental: as §2, §3, §4, §5, §6

[14] = system: Staphylococcus epidermidis (ATCC 49461); experiment: as above; conditions: ATCC49461, 10^6 CFU/ml, 18h at 37 °C
Experimental: as §2, §3, §4, §5, §6

[15] = system: Staphylococcus aureus (ATCC 106414, VISA); experiment: as above; conditions: 10^6 CFU/ml, 18h at 37 °C
Experimental: as §2, §3, §4, §5, §6

[16] = system: Staphylococcus warneri (CHUG-Swar1); experiment: as above; conditions: 10^6 CFU/ml, 18h at 37 °C
Experimental: as §2, §3, §4, §5, §6

| Structure (SMILES) | MIC [1] [µg/mL] | MIC [2] [µg/mL] | MIC [3] [µg/mL] | MIC [4] [µg/mL] | MIC [5] [µg/mL] | MIC [6] [µg/mL] | MIC [7] [µg/mL] | MIC [8] [µg/mL] | MIC [9] [µg/mL] | MIC [10] [µg/mL] | MIC [11] [µg/mL] | MIC [12] [µg/mL] | MIC [13] [µg/mL] | MIC [14] [µg/mL] | MIC [15] [µg/mL] | MIC [16] [µg/mL] |
| --- | --- | --- | --- | --- | --- | --- | --- | --- | --- | --- | --- | --- | --- | --- | --- | --- |
| CC(=O)c1c(C)[nH]c(C(c2[nH]c(C)c(C(C)=O)c2C)c2csc3ccccc23)c1C [3i] | 0.5 (≈ 1.19 µM) | > 128 | 1 (≈ 2.39 µM) | > 128 | > 128 | > 32 | 0.5 (≈ 1.19 µM) | > 32 | > 32 | > 32 | 1 (≈ 2.39 µM) | 1 (≈ 2.39 µM) | 4 (≈ 9.56 µM) | > 32 | 0.5 (≈ 1.19 µM) | 1 (≈ 2.39 µM) |
| CC(=O)c1c(C)[nH]c(C(c2ccc(F)cc2)c2[nH]c(C)c(C(C)=O)c2C)c1C [3g] | 1 (≈ 2.63 µM) | > 128 | 2 (≈ 5.26 µM) | > 32 | > 32 | > 32 | 4 (≈ 10.5 µM) | > 32 | > 32 | > 32 | 8 (≈ 21 µM) | 8 (≈ 21 µM) | 16 (≈ 42.1 µM) | > 32 | 4 (≈ 10.5 µM) | 8 (≈ 21 µM) |
| COC(=O)c1cccc(C(c2[nH]c(C)c(C(C)=O)c2C)c2[nH]c(C)c(C(C)=O)c2C)c1 [3j, Methyl-3-[bis(4-acetyl-3,5-dimethyl-1H-pyrrol-2-yl)methyl]benzoate] | 2 (≈ 4.76 µM) | > 128 | 4 (≈ 9.51 µM) | > 32 | > 32 | > 32 | 4 (≈ 9.51 µM) | > 32 | > 32 | > 32 | 16 (≈ 38 µM) | 8 (≈ 19 µM) | 16 (≈ 38 µM) | > 32 | 4 (≈ 9.51 µM) | 16 (≈ 38 µM) |
| CC(=O)c1c(C)[nH]c(C(c2[nH]c(C)c(C(C)=O)c2C)c2csc3ccc(Br)cc23)c1C [3n] | – | – | – | – | – | > 32 | 0.125 (≈ 0.251 µM) | > 32 | > 32 | > 32 | 0.125 (≈ 0.251 µM) | 0.125 (≈ 0.251 µM) | 1 (≈ 2.01 µM) | > 32 | 0.125 (≈ 0.251 µM) | 0.25 (≈ 0.503 µM) |
| CC(=O)c1c(C)[nH]c(C(c2ccc(Cl)cc2)c2[nH]c(C)c(C(C)=O)c2C)c1C [3c] | 2 (≈ 5.04 µM) | > 128 | 4 (≈ 10.1 µM) | > 128 | > 128 | > 32 | 4 (≈ 10.1 µM) | > 32 | > 32 | > 32 | 8 (≈ 20.2 µM) | 8 (≈ 20.2 µM) | 16 (≈ 40.3 µM) | > 32 | 4 (≈ 10.1 µM) | 8 (≈ 20.2 µM) |
| CC(=O)c1c(C)[nH]c(C(c2[nH]c(C)c(C(C)=O)c2C)c2cccc3ccccc23)c1C [3h] | 1 (≈ 2.42 µM) | > 128 | 1 (≈ 2.42 µM) | > 128 | > 128 | > 32 | 1 (≈ 2.42 µM) | > 32 | > 32 | > 32 | 4 (≈ 9.7 µM) | 2 (≈ 4.85 µM) | 4 (≈ 9.7 µM) | > 32 | 1 (≈ 2.42 µM) | 2 (≈ 4.85 µM) |
| CC(=O)c1c(C)[nH]c(C(c2cc3ccccc3s2)c2[nH]c(C)c(C(C)=O)c2C)c1C [3f] | 2 (≈ 4.78 µM) | > 128 | 2 (≈ 4.78 µM) | > 128 | > 128 | > 32 | 4 (≈ 9.56 µM) | > 32 | > 32 | > 32 | > 32 | 4 (≈ 9.56 µM) | > 32 | > 32 | 2 (≈ 4.78 µM) | 4 (≈ 9.56 µM) |
| CC(=O)c1c(C)[nH]c(C(c2cc3ccccc3o2)c2[nH]c(C)c(C(C)=O)c2C)c1C [3e] | 2 (≈ 4.97 µM) | > 128 | 4 (≈ 9.94 µM) | > 128 | > 128 | > 32 | 4 (≈ 9.94 µM) | > 32 | > 32 | > 32 | 8 (≈ 19.9 µM) | 8 (≈ 19.9 µM) | > 32 | > 32 | 4 (≈ 9.94 µM) | 8 (≈ 19.9 µM) |
